Reference: publication PMC10595561, “A novel microextraction technique aided by air agitation using a natural hydrophobic deep eutectic solvent for the extraction of fluvastatin and empagliflozin from plasma samples: application to pharmacokinetic and drug–drug interaction study” (RSC Advances, 2023)
Like-named read-outs stand apart in the source and are kept apart here.

What was measured:
[1] = tested on: organic anion transporting polypeptide 1B1 (OATP1B1); design: method as in PMID 27936281, PMID 19785645, PMID 29538325; details: cited from earlier work
[2] = cited from earlier work
[3] = Pharmacokinetic study of FLV in rabbits after oral FLV alone and with EMP; type: in vivo, New Zealand white rabbits; details: mean ± SD; for AUC(0-t) / k el / half-life / AUC(0-inf) / Cmax / MRT: rabbit, plasma, po, 2 mg/kg; for AUC(0-t): read-out: AUC0-24; for k el: read-out: Ke (elimination rate constant) (converted); for half-life: read-out: t0.5 (elimination half-life) (converted)
Description: Ethical approval (under the No. 06/2023/0111) for this research was granted by the ethics committee at Assiut University, Egypt, and the study was conducted in adherence to the principles outlined in the Declaration of Helsinki. The study involved six New Zealand white rabbits, each weighing 2.0 ± 0.2 kg, obtained from a licensed animal supplier in Assiut, Egypt. Before commencing the study, the rabbits' health was evaluated, ensuring they were in good condition. The rabbits were individually housed in cages measuring 0.8 × 0.6 × 0.5 m and given a 15 day acclimatization period to adjust to the experimental conditions and handling. During this time, no medications or vaccines were administered to the rabbits. The room temperature was kept constant at 25 ± 2 °C, and the relative humidity was maintained at 50 ± 5%. Throughout the acclimatization period, the rabbits were provided with a commercial pellet diet and water. Before the experiment began, the rabbits fasted for approximately 12 hours while being allowed access to water.
The rabbits administered FLV via oral route at a dose of 2.0 mg kg^−1. After a washout period of 14 days to allow any FLV to clear from the rabbits' bodies, the same rabbits administered both (2 mg kg^−1 for FLV and 1.5 mg kg^−1 for EMP). Blood samples (1.0 mL) were collected after administration of the studied analytes after 0.25, 0.5, 1, 1.5, 3, 5, 7, 10, 12, 18 and 24 h of their administration. The samples were drawn from marginal ear vein, placed into tubes that had been heparinized, and centrifuged for 15 minutes at 6000 rpm. The plasma was then collected and stored at −20 °C in dark containers until analysis. The pharmacokinetic parameters of FLV were calculated using one compartment model for the treated group using Phoenix®WinNonlin software version 5.1 (Pharsight, Mountain View, CA, USA). These parameters included total area under the curve (AUC) from 0 to 24 hours (AUC0→24), cumulative plasma concentration from 0 to infinity (AUC0→∞), peak plasma concentration (Cmax), elimination rate constant (Ke), mean residence time (MRT), absorption half-life (t1/2a), and elimination half-life (t1/2). The data are reported as mean ± standard deviation (mean ± SD). To analyze differences in parameters between the groups, t-test was employed, using GraphPad Prism 9.0.

[4] = carboxylic acid functional group; no reference given; cited from earlier work
[5] = New Zealand white, FLV (2 mg kg−1) co-administered with EMP (1.5 mg kg−1), oral, rabbit plasma
[6] = New Zealand white, FLV (2 mg kg−1) co-administered with EMP (1.5 mg kg−1), rabbit plasma
[7] = New Zealand white, FLV alone, oral 2.0 mg kg−1, rabbit plasma

Compound | Effect on OATP1B1 transporter [1] | log P [2] | Ka ([3]; FLV (2 mg kg−1) co-administered with EMP (1.5 mg kg−1), oral, rabbit plasma) | Ka ([3]; FLV alone, oral 2.0 mg kg−1, rabbit plasma) | AUC(0-t) [3, 5] | k el [3, 5] | half-life [3, 5] | AUC(0-inf) [3, 6] | Cmax [3, 6] | MRT [3, 6] | AUC(0-inf) [3, 7] | Cmax [3, 7] | MRT [3, 7] | AUC(0-t) [3, 7] | k el [3, 7] | half-life [3, 7] | Tmax [3, 5] | pKa [4]
OC[C@H]1O[C@@H](c2ccc(Cl)c(Cc3ccc(O[C@H]4CCOC4)cc3)c2)[C@H](O)[C@@H](O)[C@@H]1O [EMP, Empagliflozin] | inhibit | 1.7 |  |  |  |  |  |  |  |  |  |  |  |  |  |  |  | 
CC(C)n1c(/C=C/C(O)CC(O)CC(=O)O)c(-c2ccc(F)cc2)c2ccccc21 (stereo not shown) [FLV, Fluvastatin] |  | 4.5 | 2.52 ± 0.42 h⁻¹ | 2.24 ± 0.42 h⁻¹ | 2580 ± 245 ng·h/mL | 2.5e-05 s⁻¹ | 7.73 h | 2900 ± 189 ng·h/mL | 352 ng/mL | 7.66 ± 0.77 h | 1370 ± 144 ng·h/mL | 250 ng/mL | 6.99 ± 0.89 h | 1340 ± 452 ng·h/mL | 4.44e-05 s⁻¹ | 4.27 h | 1.5 h | around 4.8
